Measured values: patent publication US9072703B2 (Ipsen Pharma S.A.S., priority 2008, dated 2015)
Non-standard residues stand in square brackets, D forms with d. No end group written: not given here. *: point of attachment. Myristoyl = CCCCCCCCCCCCCC(=O)*; Ac6c = NC1(C(=O)O)CCCCC1; Nle = CCCC[C@H](N)C(=O)O; Orn = NCCC[C@H](N)C(=O)O; Ac5c = NC1(C(=O)O)CCCC1; Aib = CC(C)(N)C(=O)O

Experiments:
Sprague Dawley rats = assay: Determination of in vivo insulin secretion in normal rats; set-up: species or system rat
Protocol: D. Determination of In Vivo Insulin Secretion in Normal Rats
Male Sprague Dawley rats with a body weight of approximately 275-300 g were used as experimental subjects. The day prior to the treatment, right atrial cannulae were implanted via the jugular vein under chlorohydrate. Each cannula was filled with 100 u/ml heparin saline and tied. The rats were fasted for approximately 18 hours prior to dosing with the compound or the vehicle (saline/0.25% BSA). The day of the experiment, aliquots of compound were thawed, brought to room temperature and vortexed thoroughly. A careful check was made for any sign of compound coming out of solution. 10 minutes prior to compound/glucose injection, a 500 μl blood sample was withdrawn and replaced with an equal volume of heparinized saline (10 u/ml). At time 0, a 500 μl blood sample was withdrawn through the cannula. Next, either the vehicle or the appropriate dose of the compound was injected into the cannula and pushed in with the glucose (1 g/kg) or vehicle solution. Finally, 500 μl of volume of heparinized saline (10 u/ml) was used to push in the remaining glucose through the cannula. Additional 500 μl blood samples were withdrawn at 2.5, 5, 10, and 20-minute post-glucose dosing; each immediately followed by a bolus, iv injection of 500 μl heparinized saline (10 u/ml) through the cannula. The plasma was collected from the blood samples by centrifugation, and stored at −20° C. until assay for insulin content.
The in vivo effect of the compound of Example 20 was determined in a separate test under the identical experimental conditions as described above, and numerical values of the total insulin secretion for the compound of Example 20 are summarized in Table 4.

[1] = Rat plasma half-life assay; type: in vitro ADME; conditions: 37° C., LC-MS, read-out: Rat Plasma T½ (converted)
Protocol: (§1) B. Human and Rat Plasma Half-Life Assay
(§2) 50 μL was removed at various times, like at 0, 1, 2, 3, 4, 8, 24, 32, 48, 56, 72 hours, mixed with 5 μL formic acid and 150 μL acetonitrile in a microcentrifuge tube, vertexed, and centrifuged for 10 minutes at 10K rpm. The supernatant was transferred to an injection vial and analyzed by LC-MS. The LC-MS system consisted of an API4000 mass spectrometer with an ESI probe. Positive ion mode and full scan detection were used. HPLC separation was carried out on a Luna 3μ C8 (2), 2×30 mm column with a gradient from 90% A to 90% B in 10 minutes at a flow rate of 0.3 ml/min. Buffer A was 1% formic acid in water and buffer B was 1% formic acid acetonitrile.

[2] = Human plasma half-life assay; type: in vitro ADME; conditions: 37° C., LC-MS, read-out: Human Plasma T½ (converted)
Protocol: as §1, §2

[3] = target: T1, human recombinant GIP receptor (Homo sapiens, UniProt P48546); assay: In vitro hGIP receptor binding assay
T1 construct: expressed in transfected cells; host or cells: CHO-K1 clonal cells (membrane preparation)
T1 sequence (P48546 22-466): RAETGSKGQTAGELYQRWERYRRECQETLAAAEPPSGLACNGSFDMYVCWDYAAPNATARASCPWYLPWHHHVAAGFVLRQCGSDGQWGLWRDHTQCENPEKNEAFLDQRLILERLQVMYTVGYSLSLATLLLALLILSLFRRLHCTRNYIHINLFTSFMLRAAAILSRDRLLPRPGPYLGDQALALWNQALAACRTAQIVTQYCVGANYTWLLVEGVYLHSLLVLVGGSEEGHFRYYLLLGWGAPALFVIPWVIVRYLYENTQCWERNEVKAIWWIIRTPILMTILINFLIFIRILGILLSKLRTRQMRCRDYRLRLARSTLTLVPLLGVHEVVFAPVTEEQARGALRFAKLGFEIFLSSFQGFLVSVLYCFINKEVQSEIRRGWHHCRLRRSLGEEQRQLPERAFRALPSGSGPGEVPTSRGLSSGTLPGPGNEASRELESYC
Protocol: The final assay volume was 0.5 ml. The incubations were terminated by rapid filtration through GF/C filters (pre-soaked in 0.5% polyethylenimine) using a Brandel filtration manifold. Each tube and filter were then washed three times with 5-ml aliquots of ice-cold buffer.

[4] = Table 3, fasted male Sprague Dawley rats, compound by cannula with glucose 1 g/kg, blood samples to 20 min

Compound | AUC (total insulin secretion) (Sprague Dawley rats; [4]) | half-life at 0.1 mg/ml [1] [h] | half-life at 0.1 mg/ml [2] [h] | AUC (total insulin secretion) (Sprague Dawley rats; Table 4, separate test under identical experimental conditions) | Ki [3] [µM]
CC[C@H](C)[C@H](NC(=O)[C@H](CCCCN)NC(=O)[C@H](CC(=O)O)NC(=O)[C@H](CCSC)NC(=O)[C@H](C)NC(=O)[C@@H](NC(=O)C1(NC(=O)[C@H](Cc2ccc(O)cc2)NC(=O)[C@H](CC(=O)O)NC(=O)[C@H](CO)NC(=O)[C@@H](NC(=O)[C@H](Cc2ccccc2)NC(=O)[C@@H](NC(=O)CNC(=O)[C@H](CCC(=O)O)NC(=O)[C@H](C)NC(=O)[C@@H](N)Cc2ccc(O)cc2)[C@@H](C)O)[C@@H](C)CC)CCCC1)[C@@H](C)CC)C(=O)N[C@@H](Cc1c[nH]cn1)C(=O)N[C@@H](CCC(N)=O)C(=O)N[C@@H](CCC(N)=O)C(=O)N[C@@H](CC(=O)O)C(=O)N[C@@H](Cc1ccccc1)C(=O)N[C@H](C(=O)N[C@@H](CC(N)=O)C(=O)N[C@@H](Cc1c[nH]c2ccccc12)C(=O)N[C@@H](CC(C)C)C(=O)N[C@@H](CC(C)C)C(=O)N[C@@H](C)C(=O)N[C@@H](CCC(N)=O)C(=O)N[C@@H](CCCCN)C(=O)NCC(=O)N[C@@H](CCCCN)C(=O)N[C@@H](CCCCN)C(=O)N[C@@H](CC(N)=O)C(=O)N[C@@H](CC(=O)O)C(=O)N[C@@H](Cc1c[nH]c2ccccc12)C(=O)N[C@@H](CCCCN)C(=O)N[C@@H](Cc1c[nH]cn1)C(=O)N[C@@H](CC(N)=O)C(=O)N[C@H](C(=O)N[C@H](C(=O)N[C@@H](CCC(N)=O)C(=O)N[C@@H](Cc1c[nH]cn1)C(=O)O)[C@@H](C)O)[C@@H](C)CC)C(C)C [Example 3, (A5c^11, His^43)hGIP(1-43)-OH] | 269.83 | 1.9 | 7 |  | 
CC[C@H](C)[C@H](NC(=O)[C@H](CCCCN)NC(=O)[C@H](CC(=O)O)NC(=O)C1(NC(=O)[C@H](C)NC(=O)[C@@H](NC(=O)C2(NC(=O)[C@H](Cc3ccc(O)cc3)NC(=O)[C@H](CC(=O)O)NC(=O)[C@H](CO)NC(=O)[C@@H](NC(=O)[C@H](Cc3ccccc3)NC(=O)[C@@H](NC(=O)CNC(=O)[C@H](CCC(=O)O)NC(=O)[C@H](C)NC(=O)[C@@H](N)Cc3ccc(O)cc3)[C@@H](C)O)[C@@H](C)CC)CCCC2)[C@@H](C)CC)CCCC1)C(=O)N[C@@H](Cc1c[nH]cn1)C(=O)N[C@@H](CCC(N)=O)C(=O)N[C@@H](CCC(N)=O)C(=O)N[C@@H](CC(=O)O)C(=O)N[C@@H](Cc1ccccc1)C(=O)N[C@H](C(=O)N[C@@H](CC(N)=O)C(=O)N[C@@H](Cc1c[nH]c2ccccc12)C(=O)N[C@@H](CC(C)C)C(=O)N[C@@H](CC(C)C)C(=O)N[C@@H](C)C(=O)N[C@@H](CCC(N)=O)C(=O)N[C@@H](CCCCN)C(=O)NCC(=O)N[C@@H](CCCCN)C(=O)N[C@@H](CCCCN)C(=O)N[C@@H](CC(N)=O)C(=O)N[C@@H](CC(=O)O)C(=O)N[C@@H](Cc1c[nH]c2ccccc12)C(=O)N[C@@H](CCCCN)C(=O)N[C@@H](Cc1c[nH]cn1)C(=O)N[C@@H](CC(N)=O)C(=O)N[C@H](C(=O)N[C@H](C(=O)N[C@@H](CCC(N)=O)C(=O)N[C@@H](Cc1c[nH]cn1)C(=O)O)[C@@H](C)O)[C@@H](C)CC)C(C)C [Example 20, (A5c^11, 14, His^43)hGIP(1-43)-OH] |  | 4.9 | 7.2 | 149.39 | 
Glucose-dependent insulinotropic polypeptide [GIP, reference compound] | 114.87 |  |  |  | 
YAEGTFISDYSI[Aib]MDKIHQQDFVNWLLAQKGKKNDWKHNITQD-NH2 [Example 5, (Aib^13, Asp^43)hGIP(1-43)-NH2] | 196.17 | 1.3 | 5.5 |  | 
YAEGTFISDYSI[Aib]MDKIHQQDFVNWLLAQKGKKNDWKHN[Ac5c]TQ-OH [Example 7, (Aib^13, A5c^40)hGIP(1-42)-OH] | 176.90 | 1.7 | 7 |  | 
YAEGTFISDYSI[Aib][Nle]DKIHQQDFVNWLLAQKGKKNDWKHN[Ac5c]TQ-OH [Example 6, (Aib^13, Nle^14, A5c^40)hGIP(1-42)-OH] | 180.31 | 1.9 | 7.8 |  | 
YAEGTFISDY[Ac5c]IAMDKIHQQDFVNWLLAQKGKKNDWKHNITQN-OH [Example 4, (A5c^11, Asn^43)hGIP(1-43)-OH] | 265.11 | 4.1 | 7.2 |  | 
YAEGTFISDY[Ac5c]IAMDKIHQQDFVNWLLAQKGKKNDWKHNI[Ac5c]Q-OH [Example 1, (A5c^11, 41)hGIP(1-42)-OH] | 304.92 | 2.2 | 11.4 |  | 
YAEGTFISDY[Ac5c]IAMDKIHQQDFVNWLLAQKGKKNDWKHN[Ac5c]TQ-OH [Example 2, (A5c^11, 40)hGIP(1-42)-OH] | 286.02 | 2.7 | 14.1 |  | 
YAEGTF[Ac6c]SDYSIAMDKIHQQDFVNWLLAQK[Orn](Myristoyl)KKNDWKHNITQ-OH [Example 19, [A6c^7, Orn^31(N—C(O)—(CH2)12—CH3)]hGIP(1-42)-OH] |  | 54.6 | 6.3 |  | 0.018
